Data as given in PubChem BioAssay AID624369 (Broad Institute, 2012).
Inconclusive results are not listed. Calls of active or inactive are those of the source.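 How the source made its calls: active means fitted curve crosses a set inhibition level at a dose up to twice the top tested dose; inconclusive means flat curve with moderate inhibition, or an unreliable curve fit; inactive means the rest, including signal rising instead of falling.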

Legend:
[1] = tested on: HEK293 LMP1 TES2 NF-kB luciferase reporter, 16 h; test: inhibitors of TNFa-stimulated NF-kB luciferase reporter, dose response, selectivity assay for EBV LMP1 NF-kB inhibitor project, HEK293 LMP1 reporter cells, dry powder, set 2 (AID 624369)
[2] = as above; details: HEK293 LMP1 TES2 NF-kB luciferase reporter, 16 h

Row | SMILES | AC35 [1] | activity change, negative = inhibition ([2]; at 35 µM (top of the series)) | further results
1 | N#C[C@H]1[C@H](c2ccc(C#Cc3ccccc3F)cc2)[C@H](CO)N1C(=O)c1cccnc1 | 31.3 µM |  | 
2 | CN(C)C(=O)c1ccc(-c2cccc(-c3nc(C(=O)NCc4ccccc4)cc4c3[C@@H](CCO)N([S@](=O)C(C)(C)C)C4)c2)cc1 | 10.7 µM |  | 
3 | CC(C)NC(=O)N1Cc2cc(C(=O)NC3Cc4ccccc4C3)nc(-c3cccc(-c4cccnc4)c3)c2[C@H]1CCO | 29.1 µM |  | 
4 | CN(C)c1ccc2c(c1)[C@@H]1C[C@H](CC(=O)NCc3ccc(Oc4ccccc4)cc3)O[C@@H](CO)[C@@H]1O2 | 21.7 µM |  | 
5 | CN1C(=O)c2cc(NC(=O)c3ccc(C(F)(F)F)cc3)ccc2OC[C@@H]2O[C@@H](CC(=O)NC3Cc4ccccc4C3)CC[C@H]21 | 25.7 µM |  | 
6 | N#C[C@H]1N[C@H](CO)[C@H]1c1ccc(C#Cc2ccccc2F)cc1 | < 0.26 µM |  | 
7 | N#C[C@@H]1[C@H](c2ccc(C#Cc3ccccc3F)cc2)[C@@H](CO)N1C(=O)c1cccnc1 | 2.04 µM |  | 
8 | C[C@@H]1CN([C@@H](C)CO)S(=O)(=O)c2ccc(C#Cc3ccncc3)cc2O[C@H]1CN(C)C(=O)Nc1ccc2c(c1)OCO2 | 21.4 µM |  | 
9 | C[C@@H](NC(=O)C[C@H]1C[C@@H]2c3cc(NC(=O)c4cccnc4)ccc3O[C@@H]2[C@@H](CO)O1)c1ccccc1 | > 35 µM (inactive) |  | 
10 | Cc1cc(C(=O)Nc2ccc3c(c2)C(=O)N(C)[C@@H]2CC[C@H](CC(=O)NCc4ccc(-c5ccccc5)cc4)O[C@@H]2CO3)no1 | 6.74 µM |  | 
11 | CC(C)NC(=O)N1Cc2cc(C(=O)NC3Cc4ccccc4C3)nc(-c3cccc(-c4cccnc4)c3)c2[C@@H]1CCO | 18.5 µM |  | 
12 | CN1C(=O)c2cc(NC(=O)Cc3cccs3)ccc2OC[C@@H]2O[C@H](CC(=O)NCc3ccc(-c4ccccc4)cc3)CC[C@H]21 | 33.6 µM |  | 
13 | CC(=O)N(C)C[C@@H]1Oc2cc(C#Cc3ccc(F)cc3)ccc2S(=O)(=O)N([C@H](C)CO)C[C@H]1C | 34 µM |  | 
14 | Cc1ccc(S(=O)(=O)N(C)C[C@H]2Oc3cc(C#Cc4ccncc4)ccc3S(=O)(=O)N([C@@H](C)CO)C[C@@H]2C)cc1 | 10.2 µM |  | 
15 | N#C[C@H]1[C@H](c2ccc(C#Cc3ccccc3F)cc2)[C@@H](CO)N1C(=O)c1cccnc1 | 20.1 µM |  | 
16 | CC(C)(C)[S@@](=O)N1Cc2cc(C(=O)NCc3ccccc3F)nc(-c3cccc(-c4cccnc4)c3)c2[C@H]1CCO | 12.7 µM |  | 
17 | COc1ccccc1C#Cc1cnc2c(c1)C(=O)N([C@@H](C)CO)C[C@H](C)[C@@H](CN(C)C(=O)c1ccc3c(c1)OCO3)O2 | 27.9 µM |  | 
18 | COc1ccc(-c2cccc(-c3nc(C(=O)NCC(F)(F)F)cc4c3[C@H](CCO)N([S@@](=O)C(C)(C)C)C4)c2)cc1 | 28 µM |  | 
19 | O=C(C[C@H]1C[C@@H]2c3cc(NS(=O)(=O)c4ccc(F)cc4)ccc3O[C@@H]2[C@@H](CO)O1)NCc1ccc(Oc2ccccc2)cc1 | 16.7 µM |  | 
20 | CC(C)(C)[S@@](=O)N1Cc2cc(C(=O)NCc3ccccn3)nc(-c3cccc(-c4ccccc4F)c3)c2[C@H]1CCO | 26.1 µM |  | 
21 | COc1ccccc1C#Cc1ccc([C@H]2[C@H](C#N)N(C(=O)C3CC3)[C@H]2CO)cc1 | 27 µM |  | 
22 | O=C(C[C@@H]1CC[C@@H]2[C@H](COC[C@@H](O)CN2Cc2ccc(Oc3ccccc3)cc2)O1)N1CCc2ccccc2C1 | 8.89 µM |  | 

Row | SMILES | AC35 [1] | activity change, negative = inhibition ([2]; at 35 µM (top of the series)) | further results
23 | O=C(C[C@H]1C[C@@H]2c3cc(NC(=O)c4ccc5c(c4)OCO5)ccc3O[C@@H]2[C@@H](CO)O1)NCc1ccc(Oc2ccccc2)cc1 | 24.6 µM |  | 
24 | O=C(C[C@@H]1C[C@@H]2c3cc(NS(=O)(=O)c4ccc(F)cc4)ccc3O[C@@H]2[C@@H](CO)O1)NCc1ccc(Oc2ccccc2)cc1 | 16.7 µM |  | 
25 | C[C@H]1CN([C@@H](C)CO)C(=O)c2c(c3ccccc3n2C)-c2ccccc2CO[C@@H]1CN(C)C(=O)Nc1ccc(F)cc1 |  | 1.28% (inactive) | 
26 | C[C@H](NC(=O)C[C@H]1C[C@@H]2c3cc(NC(=O)c4cccnc4)ccc3O[C@@H]2[C@@H](CO)O1)c1ccccc1 |  | -8.72% (inactive) | 
27 | COc1cccc(C#Cc2ccc([C@@H]3[C@H](C#N)N(C(=O)c4ccccn4)[C@H]3CO)cc2)c1 |  | -1.9% (inactive) | 
28 | C[C@@H]1CN([C@H](C)CO)C(=O)c2c(c3ccccc3n2C)-c2ccccc2CO[C@H]1CN(C)C(=O)Nc1ccc(F)cc1 |  | 30% (inactive) | 
29 | O=C(C[C@H]1C[C@@H]2c3cc(NS(=O)(=O)c4ccc(F)cc4)ccc3O[C@@H]2[C@H](CO)O1)NC1CCCCC1 |  | -5.14% (inactive) | 
30 | C[C@H](CO)N1C[C@H](C)[C@H](CN(C)C(=O)NC2CCCCC2)Oc2cc(/C=C/c3ccccc3)ccc2S1(=O)=O |  | -10.3% (inactive) | 
31 | O=C(Cc1ccccn1)NCC[C@@H]1CC[C@@H](NC(=O)Nc2ccc(Cl)cc2)[C@@H](CO)O1 |  | 2.08% (inactive) | 
32 | Cc1noc(C)c1S(=O)(=O)Nc1ccc2c(c1)C(=O)N([C@H](C)CO)C[C@H](C)[C@H](CN(C)Cc1ccc(C(F)(F)F)cc1)OCCCC[C@@H](C)O2 |  | 62.1% (inactive) | 
33 | C[C@H](CO)N1C[C@H](C)[C@@H](CN(C)S(=O)(=O)c2cccc(F)c2)Oc2ncc(C#CC3CCCCC3)cc2C1=O |  | 1.93% (inactive) | 
34 | O=C(Cc1ccccn1)NCC[C@H]1CC[C@H](NC(=O)Nc2ccc(Cl)cc2)[C@@H](CO)O1 |  | -0.241% (inactive) | 
35 | COc1cccc(S(=O)(=O)N(C)C[C@H]2Oc3cc(C4=CCCCC4)ccc3S(=O)(=O)N([C@H](C)CO)C[C@H]2C)c1 |  | 26.9% (inactive) | 
36 | C[C@@H](NC(=O)C[C@@H]1C=C[C@H](NC(=O)Cc2ccccn2)[C@@H](CO)O1)c1ccccc1 |  | 4.33% (inactive) | 
37 | O=C(Cc1ccccn1)NCC[C@@H]1CC[C@H](NC(=O)Nc2ccc(Cl)cc2)[C@@H](CO)O1 |  | 0.116% (inactive) | 
38 | COc1ccc(NC(=O)N(C)C[C@@H]2Oc3cc(C#CCC(C)C)ccc3S(=O)(=O)N([C@@H](C)CO)C[C@@H]2C)cc1 |  | 14.6% (inactive) | 
39 | COc1cccc(S(=O)(=O)N(C)C[C@@H]2Oc3cc(C4=CCCCC4)ccc3S(=O)(=O)N([C@@H](C)CO)C[C@@H]2C)c1 |  | 17.7% (inactive) | 
40 | C[C@H](NC(=O)C[C@H]1C=C[C@H](NC(=O)Cc2ccccn2)[C@H](CO)O1)c1ccccc1 |  | 3.06% (inactive) | 
41 | C[C@H](CO)N1C[C@H](C)[C@H](CN(C)Cc2ccc(Oc3ccccc3)cc2)Oc2ccc(NC(=O)CCCN(C)C)cc2C1=O |  | 20.6% (inactive) | 
42 | Cc1noc(C)c1S(=O)(=O)Nc1ccc2c(c1)C(=O)N([C@@H](C)CO)C[C@H](C)[C@H](CN(C)Cc1ccc(C(F)(F)F)cc1)OCCCC[C@@H](C)O2 |  |  | activity change, negative = inhibition ([2]; at 30 µM (top of the series)): 83.8% (inactive)
43 | COc1cccc(S(=O)(=O)N(C)C[C@@H]2Oc3cc(C4=CCCCC4)ccc3S(=O)(=O)N([C@@H](C)CO)C[C@H]2C)c1 |  | -6.23% (inactive) | 
44 | O=C(C[C@@H]1C[C@@H]2c3cc(NS(=O)(=O)c4ccc(F)cc4)ccc3O[C@@H]2[C@H](CO)O1)NC1CCCCC1 |  | 12.6% (inactive) | 

Row | SMILES | AC35 [1] | activity change, negative = inhibition ([2]; at 35 µM (top of the series)) | further results
45 | C[C@@H]1CN([C@@H](C)CO)C(=O)c2c(c3ccccc3n2C)-c2ccccc2CO[C@@H]1CN(C)C(=O)Nc1ccc(F)cc1 |  | 3.56% (inactive) | 
46 | C[C@H](NC(=O)C[C@H]1C=C[C@@H](NC(=O)Cc2ccccn2)[C@@H](CO)O1)c1ccccc1 |  | -2.31% (inactive) | 
47 | C[C@@H]1CN([C@@H](C)CO)C(=O)Cc2cc(NC(=O)Cc3ccccc3)ccc2O[C@@H]1CN(C)Cc1ccc(C(F)(F)F)cc1 |  | 26.6% (inactive) | 
48 | C[C@@H](NC(=O)C[C@@H]1C=C[C@@H](NC(=O)Cc2ccccn2)[C@H](CO)O1)c1ccccc1 |  | -0.205% (inactive) | 
49 | CS(=O)(=O)Nc1ccc2c(c1)[C@H]1C[C@@H](CC(=O)NCC3CC3)O[C@@H](CO)[C@H]1O2 |  | -2.86% (inactive) | 
50 | C[C@@H](NC(=O)C[C@@H]1C=C[C@H](NC(=O)Cc2ccccn2)[C@H](CO)O1)c1ccccc1 |  | -2.15% (inactive) | 
51 | O=C(Cc1ccccn1)NCC[C@H]1CC[C@H](NC(=O)Nc2ccc(Cl)cc2)[C@H](CO)O1 |  | -3.5% (inactive) | 
52 | COC(=O)C[C@@H]1C[C@@H]2c3cc(NC(=O)CN(C)C)ccc3O[C@@H]2[C@@H](CO)O1 |  | 4.43% (inactive) | 
53 | O=C(Cc1ccccn1)NCC[C@@H]1CC[C@H](NC(=O)Nc2ccc(Cl)cc2)[C@H](CO)O1 |  | 1.35% (inactive) | 
54 | CO[C@H]1CN(C)C(=O)c2ccc(NC(=O)C3CC3)cc2OC[C@H](C)N(C(=O)c2ccccn2)C[C@H]1C |  | -5.44% (inactive) | 
55 | C[C@@H](NC(=O)C[C@H]1C=C[C@@H](NC(=O)Cc2ccccn2)[C@@H](CO)O1)c1ccccc1 |  | -2.43% (inactive) | 
56 | C[C@@H](NC(=O)C[C@H]1C=C[C@@H](NC(=O)Cc2ccccn2)[C@H](CO)O1)c1ccccc1 |  | -3.95% (inactive) | 
57 | C[C@@H](NC(=O)C[C@H]1C=C[C@H](NC(=O)Cc2ccccn2)[C@H](CO)O1)c1ccccc1 |  | 3.96% (inactive) | 
58 | COC(=O)C[C@H]1C[C@H]2c3cc(NC(=O)CN(C)C)ccc3O[C@H]2[C@H](CO)O1 |  | 4.38% (inactive) | 
59 | C[C@H](NC(=O)C[C@@H]1C=C[C@@H](NC(=O)Cc2ccccn2)[C@@H](CO)O1)c1ccccc1 |  | -1.02% (inactive) | 
60 | C[C@H]1CN([C@@H](C)CO)C(=O)Cc2cc(NC(=O)Cc3ccccc3)ccc2O[C@@H]1CN(C)Cc1ccc(C(F)(F)F)cc1 |  | 13.6% (inactive) | 
61 | COc1ccccc1C(=O)Nc1ccc2c(c1)C(=O)N(C)[C@@H]1CC[C@H](CC(=O)NCCc3ccncc3)O[C@H]1CO2 |  | -5.47% (inactive) | 
62 | CN(C)c1ccc2c(c1)[C@@H]1C[C@@H](CC(=O)NCc3ccc(Oc4ccccc4)cc3)O[C@@H](CO)[C@@H]1O2 |  | -31.8% (inactive) | 
63 | CO[C@H](CN(C)S(=O)(=O)c1cccc(Cl)c1)[C@@H](C)CN([C@H](C)CO)S(=O)(=O)c1ccc(Cl)cc1 |  | -1.32% (inactive) | 
64 | CS(=O)(=O)Nc1ccc2c(c1)[C@@H]1C[C@H](CC(=O)NCC3CC3)O[C@H](CO)[C@@H]1O2 |  | 6.19% (inactive) | 
